Key:
HCT 116 = assay: Cell Titer Glo viability, Mab A + SMAC mimetics (Example 13); assay type: cell-based; conditions: SMAC mimetic in combination with Mab A
Description: (§1) Synergy was determined as described in earlier examples. The average Bliss synergy scores for combinations of Mab A and SMAC mimetic on the various tumor cell lines are shown in Table 15.

SW1353 = assay: as above; assay type: cell-based; conditions: SMAC mimetic in combination with Mab A
Description: as §1

SK-MEL-5 = assay: as above; assay type: cell-based; conditions: SMAC mimetic in combination with Mab A
Description: as §1

OVCAR-4 = assay: as above; assay type: cell-based; conditions: SMAC mimetic in combination with Mab A
Description: as §1

EBC-1 = assay: as above; assay type: cell-based; conditions: SMAC mimetic in combination with Mab A
Description: as §1

HT 1080 = assay: as above; assay type: cell-based; conditions: SMAC mimetic in combination with Mab A
Description: as §1

U-937 = assay: Cell Titer Glo viability, Mab A + chemotherapeutic/targeted agent (Example 9); conditions: 72 hours
[1] = system: DR5 agonist-resistant MDA-MB-231 cells; assay: Cell Titer Glo viability, Mab A + SMAC mimetic on DR5 agonist-resistant tumor cells (Example 8); assay type: cell-based
MDA-MB-231 tumor cells = assay: Cell Titer Glo viability, Mab A + SMAC mimetic (Example 7); conditions: MDA-MB-231 cells; 72 hours
OCI-LY7 = assay: Cell Titer Glo viability, Mab A + chemotherapeutic/targeted agent (Example 9); conditions: combination with Mab A; OCI-LY7 (NHL); 72 hours
Toledo = assay: as above; assay type: cell-based; conditions: combination with Mab A; Toledo (NHL); 72 hours
WSU-DLCL2 = assay: as above; assay type: cell-based; conditions: combination with Mab A; WSU-DLCL2 (NHL); 72 hours
DOHH-2 = assay: as above; conditions: combination with Mab A; DOHH-2 (NHL); 72 hours
Karpas-422 = assay: as above; assay type: cell-based; conditions: combination with Mab A; Karpas-422 (NHL); 72 hours
NCIN87 = assay: Cell Titer Glo viability, Mab A + chemotherapeutic agent, Bliss synergy (Example 1); assay type: cell-based; conditions: combination with anti-DR5 IgM Mab A; NCIN87, Gastric Adenocarcinoma, tubular; 72 hours
HT55 = assay: as above; assay type: cell-based; conditions: combination with anti-DR5 IgM Mab A; HT55, Colorectal Carcinoma; 72 hours
HT1080 = assay: as above; assay type: cell-based; conditions: combination with anti-DR5 IgM Mab A; HT1080, Connective tissue Fibrosarcoma; 72 hours
NCIH508 = assay: as above; assay type: cell-based; conditions: combination with anti-DR5 IgM Mab A; NCIH508, Colorectal Caecum Adenocarcinoma; 72 hours
BXPC3 = assay: as above; assay type: cell-based; conditions: combination with anti-DR5 IgM Mab A; BXPC3, Pancreas adenocarcinoma; 72 hours
[2] = system: primary human hepatocytes; assay: as above; assay type: cell-based; conditions: combination with anti-DR5 IgM Mab A, Liver, 72 hours
SNU5 = assay: as above; assay type: cell-based; conditions: combination with anti-DR5 IgM Mab A; SNU5, Gastric Adenocarcinoma; 72 hours
UMUC3 = assay: as above; assay type: cell-based; conditions: combination with anti-DR5 IgM Mab A; UMUC3, Bladder Transitional Cell Carcinoma; 72 hours
NUGC4 = assay: as above; assay type: cell-based; conditions: combination with anti-DR5 IgM Mab A; NUGC4, Gastric Adenocarcinoma; 72 hours
NCIH460 = assay: as above; assay type: cell-based; conditions: combination with anti-DR5 IgM Mab A; NCIH460, Lung, Non-small cell; 72 hours
HCT15 = assay: as above; assay type: cell-based; conditions: combination with anti-DR5 IgM Mab A; HCT15, Colorectal adenocarcinoma; 72 hours
NCIH2228 = assay: as above; assay type: cell-based; conditions: combination with anti-DR5 IgM Mab A; NCIH2228, Lung, Non-small cell; 72 hours
LOUNH91 = assay: as above; assay type: cell-based; conditions: combination with anti-DR5 IgM Mab A; LOUNH91, Lung Squamous cell carcinoma; 72 hours
ASPC1 = assay: as above; assay type: cell-based; conditions: combination with anti-DR5 IgM Mab A; ASPC1, Pancreas Ductal adenocarcinoma; 72 hours
PANC1 = assay: as above; assay type: cell-based; conditions: combination with anti-DR5 IgM Mab A; PANC1, Pancreas Ductal Adenocarcinoma, exocrine; 72 hours
Colo205 tumor cells = assay: Colo205 subcutaneous tumor model in NCr nude mice (Examples 2-5, 14); assay type: in vivo; conditions: study termination on day 100; paclitaxel 25 mg/kg i.v. 5 doses, alone or with Mab A 5 mg/kg i.v. 7 doses

CN[C@@H](C)C(=O)N[C@H]1CN(S(=O)(=O)c2cccc(S(=O)(=O)N3CC[C@H]4CC[C@@H](C(=O)NC(c5ccccc5)c5ccccc5)N4C(=O)[C@@H](NC(=O)[C@H](C)NC)C3)c2)CC[C@H]2CC[C@@H](C(=O)NC(c3ccccc3)c3ccccc3)N2C1=O [APG-1387]
Average Bliss score (HCT 116): 34
Average Bliss score (SW1353): −3
Average Bliss score (SK-MEL-5): 7
Average Bliss score (OVCAR-4): 10
Average Bliss score (EBC-1): 47
Average Bliss score (HT 1080): 38

C[C@@H]1CN(CC(=O)N2CC(C)(C)c3nc(CO)c(Cc4ccc(F)cc4)cc32)[C@@H](CN2CCOC[C@H]2C)CN1 [ASTX660]
Average Bliss score (HCT 116): 29
Average Bliss score (SW1353): −2
Average Bliss score (SK-MEL-5): 11
Average Bliss score (OVCAR-4): 9
Average Bliss score (EBC-1): 17
Average Bliss score (HT 1080): 20

CC[C@]1(O)C[C@H]2CN(CCc3c([nH]c4ccccc34)[C@@](C(=O)OC)(c3cc4c(cc3OC)N(C=O)[C@H]3[C@@](O)(C(=O)OC)[C@H](OC(C)=O)[C@]5(CC)C=CCN6CC[C@]43[C@@H]65)C2)C1 [vincristine, Vincristine]
single agent cytotoxicity (cell viability curves) (U-937; U-937 cells): strong cytotoxicity

CN[C@@H](C)C(=O)N[C@H](C(=O)N1CCC[C@H]1C(=O)Nc1snnc1-c1ccccc1)C1CCCCC1 [GDC-0152, GDC-0152/RG-7419]
single agent cytotoxicity (cell viability curves) [1]: little to no cytotoxicity
single agent cytotoxicity (cell viability curves) (MDA-MB-231 tumor cells): little to no cytotoxicity

CN[C@@H](C)C(=O)N[C@H]1CN(C(=O)CC(C)C)CC[C@H]2CC[C@@H](C(=O)NC(c3ccccc3)c3ccccc3)N2C1=O [Debio 1143]
Average Bliss score (HCT 116): 19
Average Bliss score (SW1353): −1
Average Bliss score (SK-MEL-5): 4
Average Bliss score (OVCAR-4): 3
Average Bliss score (EBC-1): 23
Average Bliss score (HT 1080): 12

CC[C@H](Nc1ncnc2nc[nH]c12)c1nc2cccc(F)c2c(=O)n1-c1ccccc1 [idelalisib, Idelalisib]
Average Bliss score (U-937; combination with Mab A, U-937 (NHL)): 2.7
Average Bliss score (OCI-LY7): −1.8
Average Bliss score (Toledo): −1.6
Average Bliss score (WSU-DLCL2): −7.4
Average Bliss score (DOHH-2): −0.89
Average Bliss score (Karpas-422): −3.2

CC(=O)O[C@H]1C(=O)[C@@]2(C)[C@H]([C@H](OC(=O)c3ccccc3)[C@]3(O)C[C@H](OC(=O)[C@H](O)[C@@H](NC(=O)c4ccccc4)c4ccccc4)C(C)=C1C3(C)C)[C@]1(OC(C)=O)CO[C@@H]1C[C@@H]2O [paclitaxel, Paclitaxel]
Average Bliss score (NCIN87): 13
Average Bliss score (HT55): 6.2
Average Bliss score (HT1080): 2.7
Average Bliss score (NCIH508): 8.4
Average Bliss score (BXPC3): 3.8
Average Bliss score [2]: 5.3
Average Bliss score (SNU5): 2.8
Average Bliss score (UMUC3): 6.3
Average Bliss score (NUGC4): 7
Average Bliss score (NCIH460): 4.7
Average Bliss score (HCT15): 7.6
Average Bliss score (NCIH2228): 15
Average Bliss score (LOUNH91): 9.7
Average Bliss score (ASPC1): 14
Average Bliss score (PANC1): 15
animals with no visible tumors (tumor-free) (Colo205 tumor cells): 2 out of 10

COc1cc([C@@H]2c3cc4c(cc3[C@@H](O[C@@H]3O[C@@H]5CO[C@@H](C)O[C@H]5[C@H](O)[C@H]3O)[C@H]3COC(=O)[C@H]23)OCO4)cc(OC)c1O [etoposide, Etoposide]
Average Bliss score (NCIN87): 17
Average Bliss score (HT55): 5.1
Average Bliss score (HT1080): 3.6
Average Bliss score (NCIH508): −0.99
Average Bliss score (BXPC3): 2.2
Average Bliss score (SNU5): 3.6
Average Bliss score (NUGC4): −2.3
Average Bliss score (NCIH460): 3.6
Average Bliss score (HCT15): 15
Average Bliss score (NCIH2228): 14
Average Bliss score (LOUNH91): 16
Average Bliss score (ASPC1): 5.2
Average Bliss score (PANC1): 10

From patent US20230174660A1, “USE OF A MULTIMERIC ANTI-DR5 BINDING MOLECULE IN COMBINATION WITH A CANCER THERAPY FOR TREATING CANCER” (IGM Biosciences, Inc., priority 2020, published 2023)
